Consider 13 compounds from patent US9422339B2, “Immunomodulating cyclic compounds” (Aurigene Discovery Technologies Limited, priority 2012, dated 2016).

Where two headings read alike, the source gives them in different places. Where a SMILES comes first, the peptide text is derived from it. Bridges are numbered along the chain shown (N, C = ends). [ ]: non-standard residue; d: D form. ξ: configuration not given here. ξE = NC(CCC(=O)O)C(=O)O; ξQ = NC(=O)CCC(N)C(=O)O; ξK = NCCCCC(N)C(=O)O; Ahx = NCCCCCC(=O)O; ξS = NC(CO)C(=O)O

The target of series [1] is T1, PD1-PDL1 interaction (Homo sapiens, UniProt Q9NZQ7).
T1 construct: endogenous in cells; host or cells: MDA-MB-231 tumor cells (PD-L1); primary splenocytes of C57BL/6 mice (PD-1)
T1 sequence (Q9NZQ7 19-290): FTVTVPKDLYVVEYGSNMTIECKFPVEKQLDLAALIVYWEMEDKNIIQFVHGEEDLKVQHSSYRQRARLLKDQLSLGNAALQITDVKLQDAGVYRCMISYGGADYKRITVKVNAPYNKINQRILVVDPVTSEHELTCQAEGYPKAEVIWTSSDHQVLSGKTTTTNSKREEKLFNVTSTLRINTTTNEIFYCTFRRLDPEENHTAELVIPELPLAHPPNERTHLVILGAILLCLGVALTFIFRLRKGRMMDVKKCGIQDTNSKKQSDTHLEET
The experiment in a line: CFSE mouse splenocyte proliferation assay (FACS), co-culture with MDA-MB-231 tumor cells expressing PD-L1. The note with it: for % Splenocyte proliferation: mouse splenocytes stimulated with anti-CD3/CD28, co-culture with MDAMB231 over expressing PDL1, 72 hrs, background 13, stimulated splenocytes 72. The class given is cell-based. As to the method: The effect of PD1 derived peptides on mouse splenocyte proliferation inhibited by PDL1/PDL2 or tumor cells expressing PDL; analyzed by Fluorescence Activated Cell Shorting (FACS) method using CFSE labeling. Mouse splenocytes harvested from 6-8 weeks old C57 BL6 mice; RPMI 1640 (GIBCO, Cat #11875); DMEM with high glucose (GIBCO, Cat # D6429); Fetal Bovine Serum [Hyclone, Cat # SH30071.03]; Penicillin (10000 unit/ml)-Streptomycin (10,000 μg/ml) Liquid (GIBCO, Cat #15140-122); MEM Sodium Pyruvate solution 100 mM (100×), Liquid (GIBCO, Cat #11360); Nonessential amino acid (GIBCO, Cat #11140); L-Glutamine (GIBCO, Cat #25030); Anti-CD3 antibody (eBiosciences—16-0032); Anti-CD28 antibody (eBiosciences—16-0281); ACK lysis buffer (1 mL) (GIBCO, Cat #—A10492); Histopaque (density-1.083 gm/ml) (SIGMA 10831); Trypan blue solution (SIGMA-T8154); 2 ml Norm Ject Luer Lock syringe—(Sigma 2014-12); 40 μm nylon cell strainer (BD FALCON 35230); Hemacytometer (Bright line-SIGMA Z359629); FACS Buffer (PBS/0.1% BSA): Phosphate Buffered Saline (PBS) pH 7.2 (HiMedia TS1006) with 0.1% Bovine Serum Albumin (BSA) (SIGMA A7050) and sodium azide (SIGMA 08591); 5 mM stock solution of CFSE: CFSE stock solution was prepared by diluting lyophilized CFSE with 180 μL of Di methyl Sulfoxide (DMSO C2H6SO, SIGMA-D-5879) and aliquoted in to tubes for further use. Working concentrations were titrated from 10 μM to 1 μM. (eBioscience—650850-85); 0.05% Trypsin and 0.02% EDTA (SIGMA 59417C); 96-well format ELISA plates (Corning CLS3390); BD FACS caliber (E6016). Splenocytes harvested in a 50 ml falcon tube by mashing spleen in a 40 μm cell strainer were further treated with 1 ml ACK lysis buffer for 5 mins at room temperature. After washing with 9 ml of RPMI complete media, cells were re-suspended in 3 ml of 1×PBS in a 15 ml tube. 3 ml of histopaque was added very carefully to the bottom of the tube without disturbing overlaying splenocyte suspension. Spin the tube at 800×g for 20 mins at room temperature. Opaque layer of lymphocytes was collected carefully without disturbing/mixing any of the layers. Cells were washed twice with cold 1×PBS followed by total cell counting using trypan blue exclusion method and used further for cell based assays. Tumor cells were cultured and maintained in high glucose complete DMEM media. 1×10^5 tumor cells were plated in 96 well plates along with required conc. of PD1 derived peptide and allowed to adhere at 37° C. for 4 hrs. 1×10^6 cells/ml of harvested splenocytes were treated with 5 μM of CFSE in pre warmed 1×PBS/0.1% BSA solution for 10 mins at 37° C. Excess CFSE was quenched using 5 volumes of ice-cold culture media to the cells and incubated on ice for 5 mins. CFSE labeled splenocytes were further given three washes with ice cold complete DMEM media. CFSE labeled 1×10^5 splenocytes were added to above wells containing tumors cells and PD1 peptides. Splenocytes were stimulated with anti-CD3 and anti-CD28 antibody (1 μg/ml each) and the co-culture was further incubated for 72 hrs at 37° C. with 5% CO2. Cells were harvested and washed thrice with ice cold FACS buffer and % proliferation was analyzed using a FACS caliber with 488 nm excitation and 521 nm emission filters. Each experimental condition was carried out in triplicates and each experiment at least carried out three times % splenocyte proliferation was analyzed using cell quest FACS program and fold induction was calculated by normalizing individual values to % background proliferation Fold Induction=% splenocyte proliferation/% background proliferation Stimulated splenocytes: Splenocytes+anti-CD3/CD28 stimulation Background proliferation: Splenocytes+anti-CD3/CD28+PDL or Tumor Compound effect was examined by adding required conc. of compound to anti-CD3/CD28 stimulated splenocytes in presence of ligand (PDL-1/PDL-2) or tumor cells.

For series [2], the system named is B16F10 cells. Briefly: In vivo efficacy on lung metastasis in B16F10 subcutaneous melanoma model. The note with it: C57/Black6 female mice, 5 mg/kg subcutaneously once daily for fourteen days. As to the method:
C57/Black6 female mice (Aurigene, Bangalore, India) aged 6 to 8 weeks were used for the experiment. Animals were acclimatized for a week in the experimental room before conducting the experiment. On day 0, B16F10 cells grown in DMEM containing 10% FBS at 70 to 75% confluency were harvested and 0.1×10^6 cells per animal were injected to mice subcutaneously on the right flank region. On day 1, peptide (Compound #2) at 5 mg/kg dose dissolved in PBS, pH 7.4 was dosed subcutaneously at the rate of 10 ml/kg volume for fourteen days once daily. Vehicle control group of mice received only saline. Taxol at 5 MPK (i.p) with qd dosing was used as reference in this study. Each group consisted of ten animals. Body weight and clinical signs were recorded daily. […] At the end of 14 days of dosing period lung was harvested and analysed for metastasis by counting the black nodules.

The mark [3] stands for this setting: % splenocyte proliferation/% background proliferation, MDAMB231 over expressing PDL1, background 1.0, stimulated splenocytes 5.5.

For the compound `C[C@@H](O)[C@@H]1NC(=O)C(NC(=O)[C@@H](N)CO)CCCCNC(=O)CCC(C(=O)N[C@@H](CO)C(=O)N[C@@H](Cc2ccccc2)C(N)=O)NC(=O)[C@H](CO)NC1=O` (stereo partly shown) [Compound 1] (H-S[ξK]TS[ξE]SF-NH2; lactam 2-5), in series [1], the Fold induction was found to be 4.6 and the “% Splenocyte proliferation” value stood at 60%.

Take `C[C@@H](O)[C@@H]1NC(=O)[C@@H](NC(=O)[C@@H](N)CO)CCC(=O)NCCCC[C@@H](C(=O)N[C@@H](CO)C(=O)N[C@@H](Cc2ccccc2)C(N)=O)NC(=O)[C@H](CO)NC1=O` [Compound 2] (H-SETSKSF-NH2; lactam 2-5): the Fold induction in series [1] (setting [3]) was 4.3. In series [1], the “% Splenocyte proliferation” value was 57%. In series [2], the “body weight reduction during the period of dosing” value is listed as “no body weight reduction” and the clinical signs result is on record as “no clinical signs observed”.

For `C[C@@H](O)[C@@H]1NC(=O)C(NC(=O)[C@@H](N)CCC(=O)O)CCC(=O)NCCCCC(C(=O)N[C@@H](CO)C(=O)N[C@@H](Cc2ccccc2)C(N)=O)NC(=O)[C@H](CO)NC1=O` (stereo partly shown) [Compound 4] (H-E[ξE]TS[ξK]SF-NH2; lactam 2-5; N-terminus assumed), the Fold induction in series [1] (setting [3]) amounted to 2.8. Further, the “% Splenocyte proliferation” value in series [1] is 36%.

As to `CC[C@H](C)[C@H](NC(=O)[C@H](CO)NC(=O)C1CCCCNC(=O)CCC(NC(=O)[C@@H](N)CO)C(=O)N[C@@H]([C@@H](C)O)C(=O)N[C@@H](CO)C(=O)N1)C(N)=O` (stereo partly shown) [Compound 5] (H-S[ξE]TS[ξK]SI-NH2; lactam 2-5; N-terminus assumed), the Fold induction in series [1] (setting [3]) came to 3.2. The “% Splenocyte proliferation” value in series [1] came out at 42%.

`CC[C@H](C)[C@H](N)C(=O)NC1CCC(=O)NCCCCC(C(=O)N[C@@H](CO)C(=O)N[C@@H](Cc2ccccc2)C(N)=O)NC(=O)[C@H](CO)NC(=O)[C@H]([C@@H](C)O)NC1=O` (stereo partly shown) [Compound 6] (H-I[ξE]TS[ξK]SF-NH2; lactam 2-5; N-terminus assumed) showed a Fold induction in series [1] (setting [3]) of 4.2. Moreover, in series [1], the “% Splenocyte proliferation” value was found to be 55%.

`CC(C)[C@H](NC(=O)C1CCCCNC(=O)CCC(NC(=O)[C@@H](N)CO)C(=O)N[C@@H]([C@@H](C)O)C(=O)N[C@@H](CO)C(=O)N1)C(=O)N[C@@H](Cc1ccccc1)C(N)=O` (stereo partly shown) [Compound 7] (H-S[ξE]TS[ξK]VF-NH2; lactam 2-5; N-terminus assumed) came in with a Fold induction in series [1] (setting [3]) of 4.0. The “% Splenocyte proliferation” value in series [1] was determined as 52%.

Compound `CC[C@H](C)[C@H](N)C(=O)NC1CCC(=O)NCCCCC(C(=O)N[C@@H](CO)C(=O)NC(CCC(N)=O)C(=O)O)NC(=O)[C@H](CO)NC(=O)[C@H](CCSC)NC1=O` (stereo partly shown) [Compound 11] (H-I[ξE]MS[ξK]S[ξQ]-OH; lactam 2-5; N-terminus assumed) registered a Fold induction in series [1] (setting [3]) of 4.2. In addition, the “% Splenocyte proliferation” value in series [1] is listed as 54%.

The compound `CC[C@H](C)[C@H](N)C(=O)NC1CCC(=O)NCCCCC(C(=O)N[C@H](C(=O)NC(CCC(N)=O)C(=O)O)C(C)C)NC(=O)[C@H](CO)NC(=O)[C@H](CCSC)NC1=O` (stereo partly shown) [Compound 12] (H-I[ξE]MS[ξK]V[ξQ]-OH; lactam 2-5) registered a Fold induction in series [1] (setting [3]) of 3.0. The “% Splenocyte proliferation” value in series [1] was 39%.

`C[C@@H](O)[C@@H]1NC(=O)[C@H](CC(N)=O)NC(=O)C(CO)NC(=O)C(CCC(N)=O)NC(=O)[C@H](Cc2ccccc2)NC(=O)[C@H](CO)NC(=O)[C@H](CCC(=O)O)NC(=O)[C@H](CO)NC1=O` (stereo partly shown) [Compound 14] (cyclo(ESF[ξQ][ξS]NTS)): in series [1] (setting [3]), the Fold induction was 4.2. For the same compound, in series [1], the “% Splenocyte proliferation” value stood at 55%.

Regarding `C[C@@H](O)[C@@H]1NC(=O)[C@H](CC(N)=O)NC(=O)C(CO)NC(=O)C(CCC(N)=O)NC(=O)CCCCCNC(=O)[C@H](Cc2ccccc2)NC(=O)[C@H](CO)NC(=O)[C@H](CCC(=O)O)NC(=O)[C@H](CO)NC1=O` (stereo partly shown) [Compound 15] (cyclo([Ahx][ξQ][ξS]NTSESF)), in series [1], the Fold induction worked out at 4 and the “% Splenocyte proliferation” value came to 53%.

In series [1] (setting [3]), `C[C@@H](O)[C@@H]1NC(=O)[C@H](CCC(=O)O)NC(=O)C(CO)NC(=O)C(CCC(N)=O)NC(=O)[C@H](Cc2ccccc2)NC(=O)[C@H](CO)NC(=O)[C@H](CCCCN)NC(=O)[C@H](CO)NC1=O` (stereo partly shown) [Compound 16] (cyclo(ETSKSF[ξQ][ξS])) yielded a Fold induction of 2.8. Also, the “% Splenocyte proliferation” value in series [1] came out at 36%.

Turning to `C[C@@H](O)[C@@H]1NC(=O)[C@H](CCC(=O)O)NC(=O)C(CO)NC(=O)CCCCCNC(=O)C(CCC(N)=O)NC(=O)[C@H](Cc2ccccc2)NC(=O)[C@H](CO)NC(=O)[C@H](CCCCN)NC(=O)[C@H](CO)NC1=O` (stereo partly shown) [Compound 17] (cyclo([Ahx][ξS]ETSKSF[ξQ])), the Fold induction in series [1] (setting [3]) is reported as 3.2. Further, the “% Splenocyte proliferation” value in series [1] worked out at 42%.

`C[C@@H](O)[C@@H]1NC(=O)[C@H](CCC(=O)O)NC(=O)C(CO)NC(=O)CCC(C(N)=O)NC(=O)[C@H](Cc2ccccc2)NC(=O)[C@H](CO)NC(=O)[C@H](CCCCN)NC(=O)[C@H](CO)NC1=O` (stereo partly shown) [Compound 20] ([ξS]ETSKSF[ξE]-NH2; lactam N-8) returned a Fold induction in series [1] (setting [3]) of 2.8. In addition, in series [1], the “% Splenocyte proliferation” value is reported as 36%.
